Tested on: rat small-intestinal brush border membrane vesicles
Test: Inhibitory effect on 33PO4 uptake into rat small-intestinal brush border membrane vesicles (rapid filtration method)
Format: biochemical
Conditions: 33PO4 uptake into rat small-intestinal BBMVs; test compound 1 µM; reacted for 60 seconds
Outline: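 Uptake of ^33PO4 was measured by rapid filtration and liquid scintillation counting of filter-retained vesicles, after quenching with ice-cold 110 mM NaCl/1 mM KH2PO4/10 mM HEPES pH 7.5. Vesicles were brush border membranes from the upper small intestine of female Wistar rats aged 4–5 weeks.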

| Compound | Rate of uptake inhibition (%) (1 µM) |
| --- | --- |
| CN1[C@@H](C(C)(C)C)C(O)=C(C(=O)Nc2ccc(Cl)cc2-c2cc(C(F)(F)F)ncn2)C(=O)N1Cc1ccc(OCCN2CCOCC2)c(F)c1F [Example 265, (3S)-3-tert-Butyl-N-[4-chloro-2-[6-(trinuoromethyl)pyrimidin-4-yl]phenyl]-1-[[2,3-difluoro-4-(2-morpholin-4-ylethoxy)phenyl]methyl]-4-hydroxy-2-methyl-6-oxo-3H-pyridazine-5-carboxamide] | 52% |
| CN1[C@@H](C(C)(C)C)C(O)=C(C(=O)Nc2ccc(C(F)(F)F)cc2-c2ccc(C(F)(F)F)nc2)C(=O)N1Cc1ccc(OCCN2CCOCC2)c(F)c1F [Example 266] | 62% |
| CSc1ccc(-c2cc(C(F)(F)F)ccc2NC(=O)C2=C(O)[C@H](C(C)(C)C)N(C)N(Cc3ccc(OCCN4CCOCC4)c(F)c3F)C2=O)cn1 [Example 268] | 63% |
| CN1[C@@H](C(C)(C)C)C(O)=C(C(=O)Nc2ccc(C(F)(F)F)cc2-c2ccnc(C#N)c2)C(=O)N1Cc1ccc(OCCN2CCOCC2)c(F)c1F [Example 271] | 60% |
| CN1[C@@H](C(C)(C)C)C(O)=C(C(=O)Nc2ccc(Cl)cc2-c2cc(C#N)ncn2)C(=O)N1Cc1ccc(OCCN2CCOCC2)c(F)c1F [Example 272] | 43% |
| CN1[C@@H](C(C)(C)C)C(O)=C(C(=O)Nc2cnc(C(F)(F)F)nc2-c2ccc(C(F)(F)F)nc2)C(=O)N1Cc1ccc(OCCN2CCOCC2)c(F)c1F [Example 273] | 41% |
| Cc1c(C#N)ncnc1-c1cc(Cl)ccc1NC(=O)C1=C(O)[C@H](C(C)(C)C)N(C)N(Cc2ccc(OCCN3CCOCC3)c(F)c2F)C1=O [Example 274] | 43% |
| Cc1c(Cl)ncnc1-c1cc(Cl)ccc1NC(=O)C1=C(O)[C@H](C(C)(C)C)N(C)N(Cc2ccc(OCCN3CCOCC3)c(F)c2F)C1=O [Example 275] | 42% |
| Cc1c(Cl)ncnc1-c1cc(C(F)(F)F)ccc1NC(=O)C1=C(O)[C@H](C(C)(C)C)N(C)N(Cc2ccc(OCCN3CCOCC3)c(F)c2F)C1=O [Example 276] | 68% |
| CN1[C@@H](C(C)(C)C)C(O)=C(C(=O)Nc2ccc(C(F)(F)F)cc2C(F)(F)F)C(=O)N1Cc1ccc(OCCN2CCOCC2)c(F)c1F [Example 277] | 41% |
| Cc1c(-c2cc(C(F)(F)F)ccc2NC(=O)C2=C(O)[C@H](C(C)(C)C)N(C)N(Cc3ccc(OCCN4CCOCC4)c(F)c3F)C2=O)ncnc1C(F)(F)F [Example 278] | 69% |
| CC(C)[C@H]1C(O)=C(C(=O)Nc2ccc(C(F)(F)F)cc2-c2ccc(C(F)(F)F)nc2)C(=O)N(Cc2ccc(OCCN3CCOCC3)c(F)c2F)N1C [Example 280] | 50% |
| CC(C)[C@H]1C(O)=C(C(=O)Nc2ccc(Cl)cc2-c2ccc(C(F)(F)F)nc2)C(=O)N(Cc2ccc(OCCN3CCOCC3)c(F)c2F)N1C [Example 281] | 41% |
| CN1N(Cc2ccc(OCCN3CCOCC3)c(F)c2F)C(=O)C(C(=O)Nc2ccc(C(F)(F)F)cc2-c2ccc(C(F)(F)F)nc2)=C(O)C12CCC2 [Example 282] | 55% |
| Cc1c(C#N)ncnc1-c1cc(C(F)(F)F)ccc1NC(=O)C1=C(O)C2(CCC2)N(C)N(Cc2ccc(OCCN3CCOCC3)c(F)c2F)C1=O [Example 283] | 45% |
| CN1N(Cc2ccc(OCCN3CCOCC3)c(F)c2F)C(=O)C(C(=O)Nc2ccc(C(F)(F)F)cc2-c2ncnc(C(F)(F)F)c2Cl)=C(O)C12CCC2 [Example 284] | 46% |
| Cc1c(-c2cc(C(F)(F)F)ccc2NC(=O)C2=C(O)C3(CCC3)N(C)N(Cc3ccc(OCCN4CCOCC4)c(F)c3F)C2=O)ncnc1C(F)(F)F [Example 285] | 62% |
| CN1N(Cc2ccc(OCCN3CCOCC3)c(F)c2F)C(=O)C(C(=O)Nc2ccc(Cl)cc2-c2cc(C(F)(F)F)ncn2)=C(O)C12CCCC2 [Example 286] | 50% |

Reference: patent EP3928779A1 (Chugai Seiyaku Kabushiki Kaisha, priority 2014, dated 2016)
